Reference: article PMC6079302, “Investigating the Mechanism of Action of Diketopiperazines Inhibitors of the Burkholderia cenocepacia Quorum Sensing Synthase CepI: A Site-Directed Mutagenesis Study” (Frontiers in Pharmacology, 2018)

Tests used:
CepI Q46R mutant = target: T1, CepI Q46R mutant (Burkholderia cenocepacia, UniProt B4EMD2, Q46R); assay: CepI activity assay (DCPIP), IC50 determination, Q46R mutant; type: biochemical
T1 sequence (B4EMD2 1-202 Q46R): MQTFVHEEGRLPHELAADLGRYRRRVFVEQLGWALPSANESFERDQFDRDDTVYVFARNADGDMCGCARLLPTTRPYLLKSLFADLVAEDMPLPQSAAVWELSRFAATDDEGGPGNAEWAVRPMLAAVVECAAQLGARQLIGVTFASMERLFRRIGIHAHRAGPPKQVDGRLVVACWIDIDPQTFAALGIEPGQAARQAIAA

CepI wild type = target: T2, CepI wild type (Burkholderia cenocepacia, UniProt B4EMD2); assay: CepI activity assay (DCPIP), IC50 determination, wild type enzyme; type: biochemical; details: 70 μM C8-ACP, 40 μM SAM, 4 μM CepI, read-out: compound 8b IC50
T2 sequence (B4EMD2 1-202): T1 sequence (B4EMD2 1-202 Q46R)
Protocol: Wild type and mutant CepI were expressed in Escherichia coli BL21(DE3) cells and purified as previously described ([Scoffone et al., 2016]).
CepI activity was determined according to [Christensen et al. (2013)]. Reaction mixtures contained 50 mM 4-(2-hydroxyethyl)-1-piperazineethanesulfonic acid (HEPES) pH 7.5, 0.005% Nonidet P-40, 0.13 mM 2,6-dichlorophenylindophenol (DCPIP), 70 μM Octanoyl-ACP (C8-ACP, prepared as reported previously) ([Quadri et al., 1998]; [Cronan and Thomas, 2009]), 40 μM S-adenosyl methionine (SAM), 4 μM CepI.
IC50 was determined measuring the enzyme activity in presence of different concentrations of compound, and values determined with the following equation ([Copeland, 2000]), where A[I] is the enzyme activity at inhibitor concentration [I] and A[0] is the enzyme activity without inhibitor.

CepI S41A mutant = target: T3, CepI S41A mutant (Burkholderia cenocepacia, UniProt B4EMD2, S41A); assay: CepI activity assay (DCPIP), IC50 determination, S41A mutant; type: biochemical
T3 sequence (B4EMD2 1-202 S41A): T1 sequence (B4EMD2 1-202 Q46R)

CepI E40Q mutant = target: T4, CepI E40Q mutant (Burkholderia cenocepacia, UniProt B4EMD2, E40Q); assay: CepI activity assay (DCPIP), IC50 determination, E40Q mutant; type: biochemical
T4 sequence (B4EMD2 1-202 E40Q): T1 sequence (B4EMD2 1-202 Q46R)

CepI R24Q mutant = target: T5, CepI R24Q mutant (Burkholderia cenocepacia, UniProt B4EMD2, R24Q); assay: CepI activity assay (DCPIP), IC50 determination, R24Q mutant; type: biochemical
T5 sequence (B4EMD2 1-202 R24Q): T1 sequence (B4EMD2 1-202 Q46R)

B. cenocepacia J2315 = assay: Proteomic analysis (2-DE, LC-MS/MS) of treated cells compared with the ΔcepI strain; type: cell-based, Burkholderia cenocepacia; details: J2315 cells treated with 25 μM 8b, compared with untreated J2315; same as ΔcepI profile
Protocol: Burkholderia cenocepacia ΔcepI ([Udine et al., 2013]) and J2315 (with or without 25 μM of 8b compound) were grown in 10 ml of LB medium until OD600 nm > 2. Cells were then harvested, resuspended in 0.2 ml of Tris-HCl 50 mM, pH 7.5, disrupted by sonication, and centrifuged at 12,000 rpm for 1 h at 4°C.
The amount of proteins present in the supernatant was quantified by bicinchoninic acid method ([Smith et al., 1985]), then 300 μg were precipitated with 10% (v/v) trichloroacetic acid. The obtained protein pellet was dissolved in 125 μL of rehydration buffer (8 M urea, 4% CHAPS (w/v), 65 mM DTE, 0.8% carrier ampholytes (v/v) and 0.5% bromophenol blue) and loaded onto 7 cm IPG strips, with nonlinear pH 3–10 gradient range (GE Healthcare), and strips rehydrated for 1 h at 20°C. The first-dimensional IEF was carried out at 15°C using an Ettan IPGphor system (GE Healthcare), by applying 30 V for 8 h, 120 V for 1 h, 500 V for 0.5 h, 1000 V for 0.5 h and 5000 V for 6 h, for a total of 29–30 kVh. […] Digital images of stained gels were acquired using VersaDoc Imaging Model 3000 (BioRad) and then subjected to quali/quantitative analysis using the PD Quest (BioRad) version 8.0.1 software. […] The software then determined the amount of spots present and calculated their intensity by applying the following algorithm: peak value (ODs/image units) ^∗σx^∗σy (standard deviations in x and y). […]

CepI S41R mutant = target: T6, CepI S41R mutant (Burkholderia cenocepacia, UniProt B4EMD2, S41R); assay: CepI activity assay (DCPIP), IC50 determination, S41R mutant; type: biochemical; details: compound 8b IC50, CepI S41R; 70 μM C8-ACP, 40 μM SAM, 4 μM CepI
T6 sequence (B4EMD2 1-202 S41R): T1 sequence (B4EMD2 1-202 Q46R)

O=C1C=CC(=O)C(C2NC(=O)[C@H](Cc3ccccc3)NC2=O)=C1 (stereo partly drawn) [8b, (3S)-3-Benzyl-6-(3,6-dioxocyclohexa-1,4-dien-1-yl)piperazine-2,5-dione]
IC50 (CepI Q46R mutant): 19.2 ± 3.5 µM | compound 8b IC50 (CepI Q46R mutant; CepI Q46R, 70 μM C8-ACP, 40 μM SAM, 4 μM CepI): comparable to wild type CepI | IC50 (CepI wild type): 7.2 ± 0.2 µM | IC50 (CepI S41A mutant): 113 ± 11 µM | IC50 (CepI E40Q mutant): 53 ± 2.6 µM | IC50 (CepI R24Q mutant): 147 ± 17 µM | density of the 2-DE protein spot of the giant cable pilus protein CblA (B. cenocepacia J2315): higher density | IC50 (CepI S41R mutant): 1.07 ± 0.075 mM
